How the values were obtained:
hESC-CMs = test: Cytosolic Ca2+ transients (Fura-2/AM), HES2- and H1-CMs taken together; type: cell-based, human; details: for Effect on Vmax, upstroke of electrically evoked Ca2+ transients: 10 μM ryanodine, 30 min
Protocol: (§1) For isolating hESC-CMs, beating outgrowths were microsurgically dissected from H1- (7+11 to 17 or 18-24 days) and HES2- (18-24 days) derived EBs by a glass knife, (4) followed by incubation in collagenase II (1 mg/mL) at 37° C. for 30 min. The isolated cells were incubated with KB solution containing (mM): 85 KCl, 30 K2HPO4, 5 MgSO4, 1 EGTA, 2 Na2-ATP, 5 pyruvic acid, 5 creatine, 20 taurine, 20 d-glucose, at room temperature for 30 min. After the cells were plated on laminin-coated glass coverslips for 1 hr at 37° C., regular culture media was added. […] Calcium recordings from cell clusters containing 10-15 cells were performed within 48 hrs after plating.
(§2) A spectrofluorometric method with Fura-2/AM as the Ca^2+ indicator was used for measuring [Ca^2+]i. FLV- or hESC-CMs were incubated with 5 μM Fura-2/AM and 0.2% pluronic F-127 for 30 min at 37° C. Fluorescent signals obtained upon excitation at 340 nm (F340) and 380 nm (F380) were recorded from cells perfused with Tyrode solution containing (mM): 140 NaCl, 5.0 KCl, 1.0 CaCl2, 1.0 MaCl2, 10.0 glucose and 10 HEPES (pH 7.4) unless otherwise indicated. Data were analyzed using the Ionwizard software (Version 5, IonOptix) to generate the Ca transient parameters reported in this study. The F340/F380 ratio was used to represent cytosolic [Ca^2+]i. To induce cytoplasmic Ca^2+ transients, CMs were stimulated by electrically pulsing from 0.1 to 0.5 Hz or by caffeine application as indicated. For electrical stimulations, Ca^2+ transients were recorded and analyzed after a series of depolarizations that enabled each transient to fully decay so as to establish a steady-state SR content.

HES2-CMs = test: Cytosolic Ca2+ transients (Fura-2/AM spectrofluorometry) in HES2-CMs; type: cell-based, human
Protocol: Briefly, HES2 cells were grown on mitomycin C- (Sigma; St Louis, Mo., USA) inactivated mouse embryonic fibroblasts (mEFs). Culture medium consisted of DMEM (Invitrogen, Carlsbad, Calif.) containing 2 mM L-glutamine, insulin-transferrin-selenium, non-essential amino acids, 90 μM β-mercaptoethanol, and 20% FBS (Hyclone, Logan, Utah). HES2 cells were passaged manually (“cut-and-paste”), by cutting colony into pieces and removing them from the mEFs using dispase (8 mg/mL, Invitrogen, Carlsbad, Calif.). For cardiac differentiation, HES2 cells were removed from the mEFs, resuspended and broken into pieces, followed by co-culturing with the immortalized endoderm-like END2 cells at 100% confluence (6).
as §1, §2

FLV-CMs = test: Cytosolic Ca2+ transients (Fura-2/AM spectrofluorometry) in human fetal left ventricular CMs; type: cell-based; details: caffeine 10 mM, brief exposure, no Ca2+ in extracellular bath
Excerpt: Human FLV-CMs and adult-CMs were isolated and experimented according to protocols approved by the UC Davis IUPAC and IRB (Protocol #200614787-1 and # 200614594-1). Briefly, fetal human hearts (16-18 weeks, Advanced Bioscience Resources, INC. Alameda, Calif.) and adult human hearts (18+ years, National Disease Research Interchange, Philadelphia, Pa.) were perfused with enzymatic solutions using a customized Langendorff apparatus as previously described (19). […]
as §2, with “FLV- or hESC-CMs were incubated with 5 μM Fura-2/AM and 0.2% pluronic F-127 for 30 min at 37° C.” left out, “The F340/F380 ratio was used to represent cytosolic [Ca^2+]i. To induce cytoplasmic Ca^2+ transients, CMs were stimulated by electrically pulsing from 0.1 to 0.5 Hz or by caffeine application as indicated.” left out

H1-CMs [1] = test: Cytosolic Ca2+ transients (Fura-2/AM spectrofluorometry) in H1-CMs; type: cell-based, human
Protocol: H1 cells were grown on irradiated mEFs from 13.5-day embryos of CF-1 mice and propagated as previously described (3). The culture medium consisted of 80% Dulbecco's modified Eagle's medium, 20% knockout serum replacement, 4 ng/ml basic fibroblast growth factor, 1 mmol/L glutamine, 0.1 mmol/L β-mercaptoethanol, and 1% nonessential amino acid solution (all from Gibco-BRL, Gaithersburg, Md.). To induce the formation of embryoid bodies (EBs), hESCs were detached using 1 mg/mL type IV collagenase (Gibco-BRL) and transferred to Petri dishes containing 80% Dulbecco's modified Eagle's medium, 20% fetal bovine serum defined (HyClone, Logan, Utah), 1 mmol/L glutamine, and 1% nonessential amino acid stock in the absence of β-FGF. The aggregates were cultured in suspension for 7 days, followed by plating on gelatin-coated (0.1%; Sigma-Aldrich, St. Louis) 6-well plates to form hESC-CMs.
as §1, §2

H1-CMs [2] = test: Cytosolic Ca2+ transients (Fura-2/AM) in adenovirus-transduced H1-CMs; type: cell-based, human; details: for Electrically evoked Ca2+ transient amplitude after ryanodine / Upstroke velocity of Ca2+ transients after ryanodine: 10 μM ryanodine, 30 minutes
Excerpt: Human cardiac calsequestrin 2 (sc119365, Origene technologies, MD) was cloned and ligated into adenovirus shuttle vectors pAdCMV-IRES-GFP using primers creating Bmt and Spe I sites (pAdCMV-CSQ-IRES-GFP). IRES, internal ribosomal entry site, allows the simultaneous translation of CSQ and the fluorescence marker (GFP) with a single transcript. The truncated CSQ mutant was constructed in pAdCMV-IRES-GFP by deleting 817 bp (53 bp-869 bp) using the two EcoN I sites inside CSQ's coding sequence (Ad-CSQΔ). The resulting product after Hind III cutting was self-ligated to produce another control of pAdCMV-GFP (Ad-GFP). Adenoviruses were generated by Cre-lox recombination of purified ψ5 viral DNA and shuttle vector DNA using Cre4 cells as described previously (56).
For isolating H1-CMs, beating outgrowths were microsurgically dissected from H1- derived EBs (7+14 to 7+21 days) by a glass knife, followed by incubation in collagenase II (1 mg/mL) at 37° C. for 30 min. The isolated cells were incubated with KB solution containing (mM): 85 KCl, 30 K2HPO4, 5 MgSO4, 1 EGTA, 2 Na2-ATP, 5 pyruvic acid, 5 creatine, 20 taurine, 20 d-glucose, at room temperature for 30 min. After the cells were plated on gelatin-coated glass coverslips for 1 hr at 37° C., regular culture media was added. After 48 hours, plated H1-CMs were infected with adenoviruses for 3 hours. Recordings were performed within 24-48 hrs after infection.
A spectrofluorometric method with Fura-2/AM as the Ca^2+ indicator was used for measuring [Ca^2+]i. H1-CMs were incubated with 10 μM Fura-2/AM and 0.2% pluronic F-127 for 30 min at 37° C. Fluorescent signals obtained upon excitation at 340 nm (F340) and 380 nm (F380) were recorded from cells perfused with Tyrode solution containing (mM): 140 NaCl, 5.0 KCl, 1.0 CaCl2, 1.0 MaCl2, 10.0 glucose and 10 HEPES (pH 7.4) unless otherwise indicated. Data were analyzed using the Ionwizard software (Version 5, IonOptix) to generate the Ca^2+ transient parameters reported in this study. The F340/F380 ratio was used to represent cytosolic [Ca^2+]i. To induce cytoplasmic Ca^2+ transients, CMs were stimulated by electrically pulsing from 0.1 to 0.5 Hz or by caffeine application as indicated.
For electrical stimulations, Ca^2+ transients were recorded and analyzed after a series of depolarizations that enabled each transient to fully decay so as to establish a steady-state SR content.

## Cn1c(=O)c2c(ncn2C)n(C)c1=O [caffeine]
hESC-CMs; hESC-CMs (HES2- and H1-CMs pooled)
  Percentage of cells with caffeine-induced large Ca2+ transients: ~38%
HES2-CMs; caffeine 10 mM, brief exposure, no Ca2+ in extracellular bath, HES2-CMs
  Percentage of cells with caffeine-induced Ca2+ transients (caffeine-responsive cells): 40%
FLV-CMs
  Percentage of cells with caffeine-induced rise in cytosolic Ca2+ (caffeine-responsive cells): 65%
H1-CMs [1]; caffeine 10 mM, brief exposure, no Ca2+ in extracellular bath, H1-CMs
  Percentage of cells with caffeine-induced Ca2+ transients (caffeine-responsive cells): 35%
H1-CMs [2]; caffeine 10 mM, brief exposure, transduced H1-CMs
  Cytosolic Ca2+ response to caffeine: robust cytosolic Ca^2+ increase

## ryanodine
hESC-CMs; caffeine-insensitive cells
  Effect on Vmax, upstroke of electrically evoked Ca2+ transients: not
hESC-CMs; caffeine-responsive cells
  Effect on Vmax, upstroke of electrically evoked Ca2+ transients: significantly slowed
HES2-CMs; 10 μM ryanodine, 30 min, caffeine-insensitive HES2-CMs
  Effect on electrically evoked Ca2+ transient amplitude: not affected
HES2-CMs; 10 μM ryanodine, 30 min, caffeine-responsive HES2-CMs
  Reduction of electrically evoked Ca2+ transient amplitude: 37±4.8%
H1-CMs [1]; 10 μM ryanodine, 30 min, caffeine-insensitive H1-CMs
  Effect on electrically evoked Ca2+ transient amplitude: not affected
H1-CMs [1]; 10 μM ryanodine, 30 min, caffeine-responsive H1-CMs
  Reduction of electrically evoked Ca2+ transient amplitude: 18±4.3%
H1-CMs [2]; H1-CMs transduced with Ad-CSQ
  Electrically evoked Ca2+ transient amplitude after ryanodine: 78%
  Upstroke velocity of Ca2+ transients after ryanodine: 67%
H1-CMs [2]; H1-CMs transduced with Ad-CSQΔ
  Electrically evoked Ca2+ transient amplitude after ryanodine: 84%
  Upstroke velocity of Ca2+ transients after ryanodine: 62%
H1-CMs [2]; H1-CMs transduced with Ad-GFP
  Electrically evoked Ca2+ transient amplitude after ryanodine: 80%
  Upstroke velocity of Ca2+ transients after ryanodine: 64%

## C/C=C(/C)C(=O)O[C@H]1C(C)=C2[C@H]([C@@H]1OC(=O)CCCCCCC)[C@@](C)(OC(C)=O)C[C@H](OC(=O)CCC)[C@@]1(O)[C@H]2OC(=O)[C@@]1(C)O [thapsigargin]
HES2-CMs; thapsigargin 0.5 μM, 15 min, HES2-CMs
  Effect on Vmax, decay of electrically evoked Ca2+ transients: significantly slowed
HES2-CMs; thapsigargin 0.5 μM, 15 min, caffeine-responsive HES2-CMs
  Effect on electrically evoked Ca2+ transient amplitude: significantly reduced
H1-CMs [1]; thapsigargin 0.5 μM, 15 min, H1-CMs
  Effect on Vmax, decay of electrically evoked Ca2+ transients: significantly slowed
H1-CMs [1]; thapsigargin 0.5 μM, 15 min, caffeine-responsive H1-CMs
  Effect on electrically evoked Ca2+ transient amplitude: significantly reduced
H1-CMs [2]; thapsigargin (0.5 μM), 15 min, H1-CMs transduced with Ad-CSQ
  Decay velocity of Ca2+ transients after thapsigargin: 61%
H1-CMs [2]; thapsigargin (0.5 μM), 15 min, H1-CMs transduced with Ad-CSQΔ
  Decay velocity of Ca2+ transients after thapsigargin: 65%
H1-CMs [2]; thapsigargin (0.5 μM), 15 min, H1-CMs transduced with Ad-GFP
  Decay velocity of Ca2+ transients after thapsigargin: 69%
H1-CMs [2]; thapsigargin (0.5 μM), 15 min, transduced H1-CMs (all three groups)
  Ca2+ transient amplitude after thapsigargin: unchanged

From patent US9045731B2, “Compositions and methods for improving the functional efficacy of stem cell-derived cardiomyocytes” (The Regents of the University of California, priority 2007, dated 2015)
